Data: patent US20250179059A1 (The Regents of the University of California, priority 2021, published 2025)

Legend:
[1] = target: T1, human BRD4 bromodomain II (Homo sapiens, UniProt O60885); experiment: Bromodomain binding assay (AlphaScreen), BRD4 BDII; conditions: AlphaScreen assay, Table C2; read-out: BRD4 BDII IC50
T1 construct: human BRD4 bromodomain II [based on Genbank NM_058243, residues 349-460]; host or cells: E. coli
Outline: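 AlphaScreen competition with biotinylated H4 peptide (aa 1-21, K5/K8/K12/K16Ac), using nickel-chelate acceptor and streptavidin donor beads. Targets were His6-BRD4 BDI (44-170) or BDII (349-460), with a 30 min compound preincubation over a 10-point 3-fold series. IC50 was fitted from percentage peptide binding.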

[2] = test system: human SKM-1 acute myeloid leukemia cells; experiment: SKM-1 antiproliferation cell-based assay (ATPlite); conditions: Homo sapiens, SKM-1, 96 h, SKM-1 antiproliferation assay, 4 days, Table C2
Outline: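 Log-phase cells in RPMI 1640/15% FBS were seeded at 34722 cells/mL and exposed for 4 days to nine-concentration DMSO serial dilutions in triplicate. Viability was read as ATP luminescence (ATPlite 1step), and IC50 values came from variable-slope non-linear regression.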

Row | Compound | IC50 [1] [nM] | GI50 [2] [nM]
1 | CC(=O)Nc1ccc(-c2cccc(-c3ccnc(C#CCN)c3)c2O)cc1F [Example 296, N-(3′-(2-(3-aminoprop-1-yn-1-yl)pyridin-4-yl)-3-fluoro-2′-hydroxy-[1,1′-biphenyl]-4-yl)acetamide] | 10 to 100 | 300 to 3000
2 | CC(=O)Nc1ccc(-c2cc(F)cc(-c3ccnc(N4CC5(CNC5)C4)c3)c2O)cc1Cl [Example 298, N-(3′-(2-(2,6-diazaspiro[3.3]heptan-2-yl)pyridin-4-yl)-3-chloro-5′-fluoro-2′-hydroxy-[1,1′-biphenyl]-4-yl)acetamide] | 10 to 100 | 30 to 300
3 | CNC(=O)c1cc(-c2ccnc(N3CCNCC3)c2)c(O)c(-c2ccc(NC(C)=O)c(F)c2)c1 [Example 299, 4′-Acetamido-3′-fluoro-6-hydroxy-N-methyl-5-(2-(piperazin-1-yl)pyridin-4-yl)-[1,1′-biphenyl]-3-carboxamide] | 10 to 100 | ≥ 3000
4 | CC(=O)Nc1ccc(-c2cccc(-c3cc(OCCN)nc(N4CCNCC4)c3)c2O)cc1F [Example 302, N-(3′-(2-(2-aminoethoxy)-6-(piperazin-l-yl)pyridin-4-yl)-3-fluoro-2′-hydroxy-[1,1′-biphenyl]-4-yl)acetamide] | 10 to 100 | 300 to 3000
5 | O=C1CCC(=O)N1c1ccc(-c2cccc(-c3ccnc(N4CCNCC4)c3)c2O)cc1F [Example 303, 1-(3-fluoro-2′-hydroxy-3′-(2-(piperazin-1-yl)pyridin-4-yl)-[1,1′-biphenyl]-4-yl)pyrrolidine-2,5-dione] | > 100 | ≥ 3000
6 | CC(=O)Nc1ccc(-c2cccc(-c3ccnc(C#CCCN)c3)c2O)cc1F [Example 304, N-(3′-(2-(4-aminobut-1-yn-1-yl)pyridin-4-yl)-3-fluoro-2′-hydroxy-[1,1′-biphenyl]-4-yl)acetamide] | 10 to 100 | 300 to 3000
7 | O=C1CCCN1c1ccc(-c2c[nH]cc(-c3cccc(N4CCNCC4)c3)c2=O)cc1F [Example 307, 3-(3-fluoro-4-(2-oxopyrrolidin-1-yl)phenyl)-5-(3-(piperazin-1-yl)phenyl)pyridin-4(1H)-one] | > 100 | ≥ 3000
8 | CN1CCN(c2ccc(-c3cc(OC(F)(F)F)cc(-c4ccnc(N5CCNCC5)c4)c3O)cc2Cl)C1=O [Example 309, l-(3-chloro-2′-hydroxy-3′-(2-(piperazin-l-yl)pyridin-4-yl)-5′-(trifluoromethoxy)-[1,1′-biphenyl]-4-yl)-3-methylimidazolidin-2-one] | 10 to 100 | ≥ 3000
9 | CN1CCN(c2ccc(-c3cc(C(C)(C)C)cc(-c4ccnc(N5CCNCC5)c4)c3O)cc2Cl)C1=O [Example 310, 1-(5′-(tert-butyl)-3-chloro-2′-hydroxy-3′-(2-(piperazin-1-yl)pyridin-4-yl)-[1,1′-biphenyl]-4-yl)-3-methylimidazolidin-2-one] | > 100 | 300 to 3000
10 | CC(=O)Nc1ccc(-c2cccc(-c3cc(C#N)nc(N4CCNCC4)c3)c2O)cc1F [Example 313, N-(3′-(2-cyano-6-(piperazin-1-yl)pyridin-4-yl)-3-fluoro-2′-hydroxy-[1,1′-biphenyl]-4-yl)acetamide] | > 100 | ≥ 3000
11 | CC(C)c1cc(-c2ccnc(N3CCNCC3)c2)c(O)c(-c2ccc(N3CCN(C)C3=O)c(Cl)c2)c1 [Example 315, l-(3-chloro-2′-hydroxy-5′-isopropyl-3′-(2-(piperazin-1-yl)pyridin-4-yl)-[1,1-biphenyl]-4-yl)-3-methylimidazolidin-2-one] | 10 to 100 | 300 to 3000
12 | CN1CCN(c2ccc(-c3cc(-c4ccccc4)cc(-c4ccnc(N5CCNCC5)c4)c3O)cc2Cl)C1=O [Example 318, 1-(3-chloro-6′-hydroxy-5′-(2-(piperazin-1-yl)pyridin-4-yl)-[1,1′:3′,1″-terphenyl]-4-yl)-3-methylimidazolidin-2-one] | > 100 | 300 to 3000
13 | CC(=O)Nc1ccc(-c2cc(F)cc(-c3ccnc(N4CC5(CNC5)C4)c3)c2O)cc1F [Example 321, N-(3′-(2-(2,6-diazaspiro[3.3]heptan-2-yl)pyridin-4-yl)-3,5′-difluoro-2′-hydroxy-[1,1′-biphenyl]-4-yl)acetamide] | 10 to 100 | 30 to 300

Further lines, results first:

Row | IC50 [1] [nM] | GI50 [2] [nM] | Compound
14 | 1 to 10 | 30 to 300 | CN1CCN(c2ccc(-c3cccc(-c4cncc(N5CCNCC5)c4)c3O)cc2Cl)C1=O [Example 293, 1-(3-chloro-2′-hydroxy-3′-(5-(piperazin-l-yl)pyridin-3-yl)-[1,1′-biphenyl]-4-yl)-3-methylimidazolidin-2-one]
15 | 1 to 10 | 30 to 300 | C[C@@H]1CN(c2cc(-c3cccc(-c4ccc(N5CCN(C)C5=O)c(Cl)c4)c3O)ccn2)CCN1 [Example 294, (R)-1-(3-chloro-2′-hydroxy-3′-(2-(3-methylpiperazin-1-yl)pyridin-4-yl)-[1,1′-biphenyl]-4-yl)-3-methylimidazolidin-2-one]
16 | 1 to 10 | 30 to 300 | CN1CCN(c2ccc(-c3cc(Cl)cc(-c4ccnc(N5CCNCC5)c4)c3O)cc2Cl)C1=O [Example 295, 1-(3,5′-dichloro-2′-hydroxy-3′-(2-(piperazin-1-yl)pyridin-4-yl)-[1,1′-biphenyl]-4-yl)-3-methylimidazolidin-2-one]
17 | 1 to 10 | 30 to 300 | CN1CCN(c2ccc(-c3cccc(-c4ccnc(N5CCC(N)CC5)c4)c3O)cc2Cl)C1=O [Example 300, 1-(3′-(2-(4-aminopiperidin-1-yl)pyridin-4-yl)-3-chloro-2′-hydroxy-[1,1′-biphenyl]-4-yl)-3-methylimidazolidin-2-one]
18 | 1 to 10 | 30 to 300 | CN1CCN(c2ccc(-c3cccc(-c4ccnc(N5CCCC(N)C5)c4)c3O)cc2Cl)C1=O (centres unmarked) [Example 301, 1-(3′-(2-(3-aminopiperidin-1-yl)pyridin-4-yl)-3-chloro-2′-hydroxy-[1,1′-biphenyl]-4-yl)-3-methylimidazolidin-2-one]
19 | 1 to 10 | 30 to 300 | CN1CCN(c2ccc(-c3cccc(-c4cncc(N5CCC(N)CC5)c4)c3O)cc2Cl)C1=O [Example 305, 1-(3′-(5-(4-aminopiperidin-1-yl)pyridin-3-yl)-3-chloro-2′-hydroxy-[1,1′-biphenyl]-4-yl)-3-methylimidazolidin-2-one]
20 | 1 to 10 | 30 to 300 | Cc1cc(-c2ccnc(N3CCNCC3)c2)c(O)c(-c2ccc(N3CCN(C)C3=O)c(Cl)c2)c1 [Example 306, l-(3-chloro-2′-hydroxy-5′-methyl-3′-(2-(piperazin-1-yl)pyridin-4-yl)-[1,1'-biphenyl]-4-yl)-3-methylimidazolidin-2-one]
21 | 1 to 10 | 30 to 300 | CN1CCN(c2ccc(-c3cccc(-c4ccc(C#N)c(N5CCNCC5)c4)c3O)cc2Cl)C1=O [Example 308, 3″-chloro-2′-hydroxy-4″-(3-methyl-2-oxoimidazolidin-1-y1)-3-(piperazin-1-yl)-[1,1′:3′,1″-terphenyl]-4-carbonitrile]
22 | 1 to 10 | 300 to 3000 | CCc1cc(-c2ccnc(N3CCNCC3)c2)c(O)c(-c2ccc(N3CCN(C)C3=O)c(Cl)c2)c1 [Example 311, l-(3-chloro-5′-ethyl-2′-hydroxy-3′-(2-(piperazin-1-yl)pyridin-4-yl)-[1,1′-biphenyl]-4-yl)-3-methylimidazolidin-2-one]
23 | 1 to 10 | 30 to 300 | COc1cc(-c2ccnc(N3CCNCC3)c2)c(O)c(-c2ccc(N3CCN(C)C3=O)c(Cl)c2)c1 [Example 312, l-(3-chloro-2′-hydroxy-5′-methoxy-3′-(2-(piperazin-1-yl)pyridin-4-yl)-[1,1′-biphenyl]-4-yl)-3-methylimidazolidin-2-one]
24 | > 100 | ≥ 3000 | CN1CCN(c2ccc(-c3cc(C#N)cc(-c4ccnc(N5CCNCC5)c4)c3O)cc2Cl)C1=O [Example 314, 3′-chloro-6-hydroxy-4′-(3-methyl-2-oxoimidazolidin-1-yl)-5-(2-(piperazin-1-yl)pyridin-4-yl)-[1,1′-biphenyl]-3-carbonitrile]
25 | 1 to 10 | 300 to 3000 | CN1CCN(c2ccc(-c3cc(C4CC4)cc(-c4ccnc(N5CCNCC5)c4)c3O)cc2Cl)C1=O [Example 316, 1-(3-chloro-5′-cyclopropyl-2′-hydroxy-3′-(2-(piperazin-1-yl)pyridin-4-yl)-[1,1′-biphenyl]-4-yl)-3-methylimidazolidin-2-one]
26 | 1 to 10 | 30 to 300 | CN1CCN(c2ccc(-c3cccc(-c4ccc(CO)c(N5CCNCC5)c4)c3O)cc2Cl)C1=O [Example 317, 1-(3-chloro-2′-hydroxy-4″-(hydroxymethyl)-3″-(piperazin-1-yl)-[1,1′:3′,1″-terphenyl]-4-yl)-3-methylimidazolidin-2-one]
27 | 1 to 10 | 300 to 3000 | CN1CCN(c2ccc(-c3cccc(-c4ccc(CN)c(N5CCNCC5)c4)c3O)cc2Cl)C1=O [Example 319, 1-(4″-(aminomethyl)-3-chloro-2′-hydroxy-3″-(piperazin-1-yl)-[1,1′:3′,1″-terphenyl]-4-yl)-3-methylimidazolidin-2-one]
28 | 1 to 10 | 30 to 300 | CC(=O)NCc1ccc(-c2cccc(-c3ccc(N4CCN(C)C4=O)c(Cl)c3)c2O)cc1N1CCNCC1 [Example 320, N-((3″-chloro-2′-hydroxy-4″-(3-methyl-2-oxoimidazolidin-1-yl)-3-(piperazin-1-yl)-[1,1′:3′,1″-terphenyl]-4-yl)methyl)acetamide]
